{
  "source": "patent US12194093B2",
  "about": "“Dosing parameters for CD47 targeting therapies to hematologic malignancies” (The Board of Trustees of the Leland Stanford Junior …, priority 2017, dated 2025)",
  "key": {"[1]": {"tested_on": "bone marrow macrophages and T cells", "assay": "Immunohistochemistry of macrophages and T cells in patient bone marrow", "format": "in vivo, human", "details": "patient with partial response", "description": "In one patient that obtained a partial response, macrophage and T cell infiltrates in the bone marrow was assessed."}, "[2]": {"tested_on": "AML", "assay": "Pre-clinical models, trough level and anti-leukemic activity", "format": "in vivo", "description": "(§1) This trough level served as the minimum trough level target to guide dosing in the Phase 1 trial. […] Rapid peaks and troughs observed were consistent with target-mediated disposition due to non-linear saturation of the CD47 sink. […] Dose levels of 10 mg/kg or greater (Cohorts 3 and 4) achieve target trough levels by about 4 weeks, which is the time of first response assessment.\n(§2) Prospective testing of AML patients' molecular, chromosomal, and phenotypic characteristics by DNA sequencing, cytogenetic analysis/fluorescence in situ hybridization (FISH), and flow cytometry, can lead to identification of patients with greater responses to Hu5F9-G4."}, "[3]": {"assay": "AML Phase 1 trial, serum concentrations of Hu5F9-G4", "format": "in vivo, human", "details": "patients", "description": "as §1"}, "[4]": {"tested_on": "AML", "assay": "AML Phase 1 trial, clinical response", "format": "in vivo, human", "description": "as §1\nSeveral additional factors are notable for these patients with biologic activity."}, "[5]": {"tested_on": "myeloid mutations", "assay": "Targeted DNA sequencing of myeloid mutations in Phase 1 AML patients", "format": "in vivo, human", "details": "Phase 1 AML patients receiving Hu5F9-G4", "excerpt": "as §2"}, "[6]": {"tested_on": "human AML", "assay": "Human AML xenograft mouse model, early death and disease clearance", "format": "in vivo", "excerpt": "We have established a human AML xenograft mouse model to test CD47-SIRPalpha pathway blocking therapies.\nWe also observed that early death seemed to be related to burden of circulating disease, in that mice with high levels of circulating leukemia cells succumbed to early death.\nThe object of this study was to determine whether early death observed in AML-xenografted mice can be avoided by reducing the rate at which leukemia cells are killed. […] It was hypothesized that early death might be due either to agglutination of leukemic cells or tumor lysis, and that early death may be avoided by reducing the rate at which leukemia cells are killed.\nAll mice in the control group continuously progressed and died."}, "[7]": {"tested_on": "circulating WBC", "assay": "AML Phase 1 trial, cytoreduction with concomitant Hu5F9-G4, safety", "format": "in vivo, human", "details": "any patients treated on Phase 1 trial"}, "[8]": {"tested_on": "HL60 leukemia cells", "assay": "Macrophage phagocytosis of HL60 leukemia cells (flow cytometry)", "format": "cell-based, human", "details": "azacitidine 1 μM", "description": "Macrophages were labeled with an anti-CD206 Ab and all cells were analyzed by flow cytometry to determine phagocytosis of HL60 leukemia cells. Phagocytosis of HL60 leukemia cells was determined as percentage of GFP positive, HL60 engulfing, macrophages compared to total number of macrophages. Results were normalized to the condition with maximal phagocytosis (100%)."}},
  "note": "Entries after “also recorded” stand apart in the source; their conditions may differ.",
  "data": [
    {"molecule": "Hu5F9-G4: a humanized anti-CD47 antibody", "values": [
      {"measurement": "macrophages present in the marrow (CD68 or CD163 staining)", "setting": "[1]; week 4 of treatment", "result": "significant number of macrophages"},
      {"measurement": "T cell infiltrates, of all bone marrow cells", "setting": "[1]; week 8 of therapy, baseline 10-15% or 15%", "result": "40-50%"},
      {"measurement": "pre-clinical activity across AML subtypes", "setting": "[2]; monotherapy, cytogenetic, molecular, phenotypic/morphologic subtypes", "result": "monotherapy activity across a wide range of cytogenetic, molecular, and phenotypic AML subtypes; also recorded: broad pre-clinical activity across AML morphologic, molecular, and cytogenetic subtypes"},
      {"measurement": "activity in relation to tumor burden", "setting": "[2]; pre-clinical and initial clinical studies", "result": "enhanced activity in lower tumor burden of disease"},
      {"measurement": "trough level associated with efficacy", "setting": "[2]; pre-clinical models", "result": "≥ 100", "unit": "µg/mL"},
      {"measurement": "achievement of target trough levels (100 μg/ml)", "setting": "[3]; dose levels 3 mg/kg or less (Cohorts 1 and 2)", "result": "did not achieve target trough levels"},
      {"measurement": "time to achieve target trough levels (100 μg/ml)", "setting": "[3]; dose levels of 10 mg/kg or greater (Cohorts 3 and 4)", "result": "about 4 weeks"},
      {"measurement": "blast reduction", "setting": "[4]; Cohort 3, one patient with partial response", "result": "> 50", "unit": "%"},
      {"measurement": "RBC transfusion requirements", "setting": "[4]; Cohort 3, patient with partial response, month 3 and beyond of treatment", "result": "from approximately every week prior to treatment to once a month"},
      {"measurement": "duration of response", "setting": "[4]; Cohort 3, patient with partial response, ongoing", "result": "over 6 months"},
      {"measurement": "patients exhibiting biologic antileukemic activity", "setting": "[4]; maximum of 10 mg/kg twice weekly (Cohort 3)", "result": "two out of three"},
      {"measurement": "response to therapy", "setting": "[4]; patients, at or below 3 mg/kg (Cohorts 1 and 2)", "result": "not expected nor observed"},
      {"measurement": "mutational burden (variant allele frequency)", "setting": "[5]", "result": "Reduction in mutational burden (variant allele frequency) was observed for some mutations over others"},
      {"measurement": "effect of intra-subject dose escalation (low doses first, then higher doses)", "setting": "[6]; AML xenografted mice with high circulating burden", "result": "prevented early mortality but also resulted in safe clearance of leukemic cells"},
      {"measurement": "clearance of disease", "setting": "[6]; Cohort I, 100 μg/day for 14 days, sole surviving mouse", "result": "disease was cleared"},
      {"measurement": "clearance of disease", "setting": "[6]; Cohort III, 7 doses of 1 μg, 7 doses of 10 μg, 14 doses of 100 μg", "result": "noticeably diminished"},
      {"measurement": "relapse", "setting": "[6]; Cohort III, after end of treatment", "result": "relapsed several weeks after the end of treatment"},
      {"measurement": "effect of retreatment after relapse", "setting": "[6]; groups that received dose-escalating regimen", "result": "cleared the disease and led to long-term disease free survival in some cases"},
      {"measurement": "early death", "setting": "[6]; initial dose 1 μg (Cohort III)", "result": "no early deaths and None"},
      {"measurement": "early death", "setting": "[6]; initial dose 10 μg (Cohort II)", "result": "1 of 5 and One mouse out of five"},
      {"measurement": "early death", "setting": "[6]; initial dose 100 μg (Cohort I)", "result": "Four out of five"},
      {"measurement": "survival of subsequent doses", "setting": "[6]; mouse, in vivo", "result": "remaining four mice survived"},
      {"measurement": "time to death after administration of the first dose", "setting": "[6]; xenografted mice with very high circulating AML burden (>50% of total WBC) and marrow infiltration", "result": "≤ 1", "unit": "h"},
      {"measurement": "acute death related to Hu5F9-G4", "setting": "[7]", "result": "No acute death"}
    ]},
    {"molecule": "Nc1ncn([C@@H]2O[C@H](CO)[C@@H](O)[C@H]2O)c(=O)n1", "note": "[Azacitidine]", "values": [
      {"measurement": "phagocytic elimination of HL60 leukemia cells by human macrophages", "setting": "[8]", "result": "did not enhance"}
    ]}
  ]
}
